From patent US9826761B2, “Compositions and methods for mitigating dietary sulfur in animals” (SarTec Corporation, priority 2008, dated 2017)

What was measured:
[1] = Precipitating activity: rumen fluid containing manganese compound titrated with 1.0M Na2S, silver/sulfide electrode; design: species or system Holstein cows; details: 100 mM MnO2(IV) in rumen fluid
Experimental: Next, 0.28 g of MnO(II) was placed in a 100 ml beaker and 20 ml of rumen fluid was added. Then 0.17 g of MnO2(IV) was placed in 100 ml beaker and 20 ml of rumen fluid was added. Each of these compositions, in addition to a rumen fluid control, was then titrated with a 1.0M solution of Na2S. The progress of the reaction was followed using the same silver/sulfide electrode set-up described above (Orion, Ion Plus Silver/Sulfide 9616BNWP).

[2] = Titration of approx. 200 mM sulfide in 24 hour old rumen fluid with 1 M MnCl2, BaCl2 or CaCl2, silver/sulfide electrode; design: species or system Holstein cows
Experimental: 24 hour old undiluted rumen fluid from rumen fistulated Holstein cows was obtained. 4 ml of Na2S in water (approximately 1 M) was added to 16 ml of the rumen fluid. The final concentration of sulfide ion in the rumen fluid was approximately 200 mM. […] The progress of the reaction was followed using the same silver/sulfide electrode set-up described above (Orion, Ion Plus Silver/Sulfide 9616BNWP).

## [O]=[Mn]=[O] [MnO2(IV)]
[1]; Vol 1M Na2S 0.0
  mVolts: 597.2 mVolts
[1]; Vol 1M Na2S 0.1
  mVolts: 672.5 mVolts
[1]; Vol 1M Na2S 0.2
  mVolts: 679.4 mVolts
[1]; Vol 1M Na2S 0.3
  mVolts: 688.1 mVolts
[1]; Vol 1M Na2S 0.4
  mVolts: 698.0 mVolts
[1]; Vol 1M Na2S 0.5
  mVolts: 699.4 mVolts
[1]; Vol 1M Na2S 0.7
  mVolts: 709.7 mVolts
[1]; Vol 1M Na2S 0.8
  mVolts: 720.0 mVolts
[1]; Vol 1M Na2S 0.9
  mVolts: 728.2 mVolts
[1]; Vol 1M Na2S 1.0
  mVolts: 738.1 mVolts
[1]; Vol 1M Na2S 1.1
  mVolts: 732.5 mVolts
[1]; Vol 1M Na2S 1.2
  mVolts: 737.4 mVolts
[1]; Vol 1M Na2S 1.3
  mVolts: 740.0 mVolts
[1]; Vol 1M Na2S 1.4
  mVolts: 749.2 mVolts
[1]; Vol 1M Na2S 1.5
  mVolts: 742.7 mVolts
[1]; Vol 1M Na2S 1.8
  mVolts: 762.4 mVolts
[1]; Vol 1M Na2S 2.1
  mVolts: 776.0 mVolts
[1]; Vol 1M Na2S 2.4
  mVolts: 784.3 mVolts
[1]; Vol 1M Na2S 2.6
  mVolts: 791.9 mVolts
[1]; Vol 1M Na2S 2.8
  mVolts: 796.6 mVolts
[1]; Vol 1M Na2S 3.0
  mVolts: 803.1 mVolts
[1]; Vol 1M Na2S 3.2
  mVolts: 806.0 mVolts
[1]; Vol 1M Na2S 3.5
  mVolts: 817.4 mVolts
[1]; Vol 1M Na2S 3.7
  mVolts: 817.0 mVolts
[1]; Vol 1M Na2S 3.9
  mVolts: 816.5 mVolts
[1]; Vol 1M Na2S 4.1
  mVolts: 817.2 mVolts

## [Ca+2].[Cl-].[Cl-] [CaCl2]
[2]; Volume 0.0 of 1.0M CaCl2, ~200 mM sulfide
  mVolts: 945.1 mVolts
[2]; Volume 0.1 of 1.0M CaCl2, ~200 mM sulfide
  mVolts: 939.8 mVolts
[2]; Volume 0.3 of 1.0M CaCl2, ~200 mM sulfide
  mVolts: 944.8 mVolts
[2]; Volume 0.5 of 1.0M CaCl2, ~200 mM sulfide
  mVolts: 931.6 mVolts
[2]; Volume 0.7 of 1.0M CaCl2, ~200 mM sulfide
  mVolts: 931.3 mVolts
[2]; Volume 0.9 of 1.0M CaCl2, ~200 mM sulfide
  mVolts: 931.2 mVolts
[2]; Volume 1.1 of 1.0M CaCl2, ~200 mM sulfide
  mVolts: 931.1 mVolts
[2]; Volume 1.4 of 1.0M CaCl2, ~200 mM sulfide
  mVolts: 930.7 mVolts
[2]; Volume 1.6 of 1.0M CaCl2, ~200 mM sulfide
  mVolts: 927.1 mVolts
[2]; Volume 1.8 of 1.0M CaCl2, ~200 mM sulfide
  mVolts: 925.7 mVolts
[2]; Volume 2.0 of 1.0M CaCl2, ~200 mM sulfide
  mVolts: 924.8 mVolts
[2]; Volume 2.2 of 1.0M CaCl2, ~200 mM sulfide
  mVolts: 923.8 mVolts
[2]; Volume 2.4 of 1.0M CaCl2, ~200 mM sulfide
  mVolts: 923.0 mVolts
[2]; Volume 2.6 of 1.0M CaCl2, ~200 mM sulfide
  mVolts: 921.0 mVolts
[2]; Volume 2.8 of 1.0M CaCl2, ~200 mM sulfide
  mVolts: 920.2 mVolts
[2]; Volume 3.0 of 1.0M CaCl2, ~200 mM sulfide
  mVolts: 917.5 mVolts
[2]; Volume 3.3 of 1.0M CaCl2, ~200 mM sulfide
  mVolts: 916.8 mVolts
[2]; Volume 3.4 of 1.0M CaCl2, ~200 mM sulfide
  mVolts: 915.6 mVolts
[2]; Volume 3.6 of 1.0M CaCl2, ~200 mM sulfide
  mVolts: 914.9 mVolts
[2]; Volume 3.8 of 1.0M CaCl2, ~200 mM sulfide
  mVolts: 914.3 mVolts
[2]; Volume 4.0 of 1.0M CaCl2, ~200 mM sulfide
  mVolts: 913.7 mVolts
[2]; Volume 4.2 of 1.0M CaCl2, ~200 mM sulfide
  mVolts: 913.1 mVolts
[2]; Volume 4.4 of 1.0M CaCl2, ~200 mM sulfide
  mVolts: 912.6 mVolts
[2]; Volume 4.6 of 1.0M CaCl2, ~200 mM sulfide
  mVolts: 912.1 mVolts
[2]; Volume 4.8 of 1.0M CaCl2, ~200 mM sulfide
  mVolts: 911.0 mVolts
[2]; Volume 5.0 of 1.0M CaCl2, ~200 mM sulfide
  mVolts: 910.1 mVolts
[2]; Volume 5.2 of 1.0M CaCl2, ~200 mM sulfide
  mVolts: 909.9 mVolts
[2]; Volume 5.4 of 1.0M CaCl2, ~200 mM sulfide
  mVolts: 909.5 mVolts
[2]; Volume 5.6 of 1.0M CaCl2, ~200 mM sulfide
  mVolts: 908.9 mVolts
[2]; Volume 5.8 of 1.0M CaCl2, ~200 mM sulfide
  mVolts: 908.5 mVolts
[2]; Volume 6.0 of 1.0M CaCl2, ~200 mM sulfide
  mVolts: 908.0 mVolts
[2]; Volume 6.5 of 1.0M CaCl2, ~200 mM sulfide
  mVolts: 906.7 mVolts
[2]; Volume 7.0 of 1.0M CaCl2, ~200 mM sulfide
  mVolts: 905.5 mVolts
[2]; Volume 7.5 of 1.0M CaCl2, ~200 mM sulfide
  mVolts: 904.5 mVolts
[2]; Volume 8.0 of 1.0M CaCl2, ~200 mM sulfide
  mVolts: 903.3 mVolts
[2]; Volume 8.5 of 1.0M CaCl2, ~200 mM sulfide
  mVolts: 902.3 mVolts
[2]; Volume 9.0 of 1.0M CaCl2, ~200 mM sulfide
  mVolts: 901.3 mVolts
[2]; Volume 9.5 of 1.0M CaCl2, ~200 mM sulfide
  mVolts: 900.3 mVolts
[2]; Volume 10.0 of 1.0M CaCl2, ~200 mM sulfide
  mVolts: 899.6 mVolts

## [Ba+2].[Cl-].[Cl-] [BaCl2]
[2]; Volume 0.0 of 1.0M BaCl2, ~200 mM sulfide
  mVolts: 942.6 mVolts
[2]; Volume 0.3 of 1.0M BaCl2, ~200 mM sulfide
  mVolts: 943.7 mVolts
[2]; Volume 0.4 of 1.0M BaCl2, ~200 mM sulfide
  mVolts: 943.3 mVolts
[2]; Volume 0.6 of 1.0M BaCl2, ~200 mM sulfide
  mVolts: 942.7 mVolts
[2]; Volume 0.8 of 1.0M BaCl2, ~200 mM sulfide
  mVolts: 941.3 mVolts
[2]; Volume 1.0 of 1.0M BaCl2, ~200 mM sulfide
  mVolts: 927.0 mVolts
[2]; Volume 1.2 of 1.0M BaCl2, ~200 mM sulfide
  mVolts: 925.6 mVolts
[2]; Volume 1.4 of 1.0M BaCl2, ~200 mM sulfide
  mVolts: 923.3 mVolts
[2]; Volume 1.6 of 1.0M BaCl2, ~200 mM sulfide
  mVolts: 922.5 mVolts
[2]; Volume 1.8 of 1.0M BaCl2, ~200 mM sulfide
  mVolts: 921.5 mVolts
[2]; Volume 2.0 of 1.0M BaCl2, ~200 mM sulfide
  mVolts: 920.9 mVolts
[2]; Volume 2.2 of 1.0M BaCl2, ~200 mM sulfide
  mVolts: 920.5 mVolts
[2]; Volume 2.4 of 1.0M BaCl2, ~200 mM sulfide
  mVolts: 920.0 mVolts
[2]; Volume 2.6 of 1.0M BaCl2, ~200 mM sulfide
  mVolts: 919.7 mVolts
[2]; Volume 2.8 of 1.0M BaCl2, ~200 mM sulfide
  mVolts: 918.8 mVolts
[2]; Volume 3.0 of 1.0M BaCl2, ~200 mM sulfide
  mVolts: 918.1 mVolts
[2]; Volume 3.2 of 1.0M BaCl2, ~200 mM sulfide
  mVolts: 917.7 mVolts
[2]; Volume 3.4 of 1.0M BaCl2, ~200 mM sulfide
  mVolts: 917.2 mVolts
[2]; Volume 3.6 of 1.0M BaCl2, ~200 mM sulfide
  mVolts: 916.7 mVolts
[2]; Volume 3.8 of 1.0M BaCl2, ~200 mM sulfide
  mVolts: 916.0 mVolts
[2]; Volume 4.0 of 1.0M BaCl2, ~200 mM sulfide
  mVolts: 915.6 mVolts
[2]; Volume 4.2 of 1.0M BaCl2, ~200 mM sulfide
  mVolts: 915.0 mVolts
[2]; Volume 4.4 of 1.0M BaCl2, ~200 mM sulfide
  mVolts: 914.8 mVolts
[2]; Volume 4.6 of 1.0M BaCl2, ~200 mM sulfide
  mVolts: 914.4 mVolts
[2]; Volume 4.8 of 1.0M BaCl2, ~200 mM sulfide
  mVolts: 913.9 mVolts
[2]; Volume 5.0 of 1.0M BaCl2, ~200 mM sulfide
  mVolts: 913.6 mVolts
[2]; Volume 5.2 of 1.0M BaCl2, ~200 mM sulfide
  mVolts: 913.0 mVolts
[2]; Volume 5.4 of 1.0M BaCl2, ~200 mM sulfide
  mVolts: 913.0 mVolts
[2]; Volume 5.6 of 1.0M BaCl2, ~200 mM sulfide
  mVolts: 912.7 mVolts
[2]; Volume 5.8 of 1.0M BaCl2, ~200 mM sulfide
  mVolts: 912.0 mVolts
[2]; Volume 6.0 of 1.0M BaCl2, ~200 mM sulfide
  mVolts: 911.7 mVolts
[2]; Volume 6.5 of 1.0M BaCl2, ~200 mM sulfide
  mVolts: 910.7 mVolts
[2]; Volume 7.0 of 1.0M BaCl2, ~200 mM sulfide
  mVolts: 910.8 mVolts
[2]; Volume 7.5 of 1.0M BaCl2, ~200 mM sulfide
  mVolts: 909.5 mVolts
[2]; Volume 8.0 of 1.0M BaCl2, ~200 mM sulfide
  mVolts: 908.3 mVolts
[2]; Volume 8.5 of 1.0M BaCl2, ~200 mM sulfide
  mVolts: 907.4 mVolts
[2]; Volume 9.0 of 1.0M BaCl2, ~200 mM sulfide
  mVolts: 906.8 mVolts
[2]; Volume 9.5 of 1.0M BaCl2, ~200 mM sulfide
  mVolts: 905.7 mVolts
[2]; Volume 10.0 of 1.0M BaCl2, ~200 mM sulfide
  mVolts: 905.0 mVolts
